Results on 30 compounds are retold here after patent publication US12600725B2 (Memorial Sloan-Kettering Cancer Center, priority 2013, dated 2026).

For experiment [1], the target named is T1, Trap-1 (Homo sapiens, UniProt Q12931).
T1 sequence (Q12931 60-704): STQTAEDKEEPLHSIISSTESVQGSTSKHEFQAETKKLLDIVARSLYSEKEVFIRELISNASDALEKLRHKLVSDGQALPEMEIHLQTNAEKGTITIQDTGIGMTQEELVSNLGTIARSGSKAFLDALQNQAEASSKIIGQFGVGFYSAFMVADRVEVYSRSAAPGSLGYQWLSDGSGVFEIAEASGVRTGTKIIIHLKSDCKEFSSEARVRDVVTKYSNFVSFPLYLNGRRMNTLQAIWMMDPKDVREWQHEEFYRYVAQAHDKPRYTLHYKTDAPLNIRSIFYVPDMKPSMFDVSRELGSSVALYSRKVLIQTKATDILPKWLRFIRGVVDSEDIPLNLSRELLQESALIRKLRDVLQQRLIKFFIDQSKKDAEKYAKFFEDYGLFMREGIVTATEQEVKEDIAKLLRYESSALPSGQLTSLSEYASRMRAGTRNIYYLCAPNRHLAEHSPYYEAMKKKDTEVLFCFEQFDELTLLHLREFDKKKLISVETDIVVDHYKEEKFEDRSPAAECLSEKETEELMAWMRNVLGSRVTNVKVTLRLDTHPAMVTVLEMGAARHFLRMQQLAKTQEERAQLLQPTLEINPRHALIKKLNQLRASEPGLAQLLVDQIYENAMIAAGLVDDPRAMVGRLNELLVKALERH
Put plainly: biochemical.

Experiment [2] concerns the target Hsp90α (Homo sapiens, UniProt P07900). Put plainly: biochemical. The following applies: FP competition, 6 nM Cy3B-GM, 10 nM protein, 4° C. for 24 h.
Experiment [3] addresses Hsp90β (Homo sapiens, UniProt P08238).
For experiment [4], the target named is Grp94 (Canis lupus familiaris, UniProt P41148). Particulars: read-out: Grp94; FP competition, 6 nM Cy3B-GM, 10 nM protein, 4° C. for 24 h.
Chain of Grp94 (P41148 with tags, fused parts or gaps DELINS287-327GGGG): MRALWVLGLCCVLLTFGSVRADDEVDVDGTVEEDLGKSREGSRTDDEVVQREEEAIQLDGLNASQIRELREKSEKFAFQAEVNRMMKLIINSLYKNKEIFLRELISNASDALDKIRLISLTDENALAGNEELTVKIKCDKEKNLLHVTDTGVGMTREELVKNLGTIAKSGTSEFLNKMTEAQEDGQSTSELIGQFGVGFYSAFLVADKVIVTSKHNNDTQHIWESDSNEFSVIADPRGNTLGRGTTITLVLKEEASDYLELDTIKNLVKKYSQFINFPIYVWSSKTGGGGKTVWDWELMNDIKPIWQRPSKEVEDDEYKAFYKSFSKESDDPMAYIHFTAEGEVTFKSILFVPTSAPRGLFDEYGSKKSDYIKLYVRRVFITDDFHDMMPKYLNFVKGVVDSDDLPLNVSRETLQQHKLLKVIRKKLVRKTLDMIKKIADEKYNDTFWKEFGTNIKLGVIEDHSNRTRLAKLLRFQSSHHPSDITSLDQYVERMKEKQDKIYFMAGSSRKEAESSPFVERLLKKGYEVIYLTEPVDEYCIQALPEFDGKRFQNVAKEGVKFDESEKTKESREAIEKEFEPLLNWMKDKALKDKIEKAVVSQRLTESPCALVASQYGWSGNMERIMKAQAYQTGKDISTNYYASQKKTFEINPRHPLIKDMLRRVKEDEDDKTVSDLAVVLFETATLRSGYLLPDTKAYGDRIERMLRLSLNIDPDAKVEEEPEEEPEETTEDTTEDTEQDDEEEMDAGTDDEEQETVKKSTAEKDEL

Chain of Hsp90β (P08238 whole entry): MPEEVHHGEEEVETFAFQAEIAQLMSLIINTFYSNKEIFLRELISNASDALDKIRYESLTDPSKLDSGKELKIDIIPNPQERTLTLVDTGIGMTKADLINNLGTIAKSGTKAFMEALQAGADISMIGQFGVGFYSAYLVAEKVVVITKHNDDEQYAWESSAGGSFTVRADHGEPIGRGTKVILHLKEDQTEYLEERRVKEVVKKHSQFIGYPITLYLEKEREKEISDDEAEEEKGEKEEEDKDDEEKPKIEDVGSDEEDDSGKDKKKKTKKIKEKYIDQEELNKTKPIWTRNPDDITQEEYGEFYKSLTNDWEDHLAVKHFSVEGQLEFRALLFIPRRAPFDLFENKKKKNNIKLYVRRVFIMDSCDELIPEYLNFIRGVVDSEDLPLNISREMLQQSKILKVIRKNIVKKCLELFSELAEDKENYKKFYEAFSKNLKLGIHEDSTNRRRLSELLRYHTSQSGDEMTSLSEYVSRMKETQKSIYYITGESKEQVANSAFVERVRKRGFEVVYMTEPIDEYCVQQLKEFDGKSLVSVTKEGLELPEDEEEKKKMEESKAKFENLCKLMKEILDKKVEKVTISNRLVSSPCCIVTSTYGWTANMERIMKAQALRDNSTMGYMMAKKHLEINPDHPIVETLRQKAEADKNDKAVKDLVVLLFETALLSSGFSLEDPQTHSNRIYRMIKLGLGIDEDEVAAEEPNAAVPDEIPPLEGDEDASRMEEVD

With `CCC[C@H](C)n1c(Cc2cc(OC)c(OC)c(OC)c2)nc2c(N)ncnc21` [PU-34], the IC50 in experiment [1] is 227 ± 6.6 µM; in experiment [2], greater than 500 µM; in experiment [3], greater than 250 µM; in experiment [4], 91.3 ± 2.16 µM.
On the same counts, the results for `C#CCCCn1c(Sc2cc(Cl)c(Cl)c(Cl)c2)nc2c(N)ncnc21` [PDP-121] are 2.2 ± 0.67 µM, greater than 100 µM, greater than 100 µM and 1.66 ± 0.48 µM.
On the same counts, the results for `C#CCCCn1cnc(N)c2nc(Sc3ccc(Cl)c(Cl)c3Cl)nc1-2` [PDP-126B] are 34.1 µM, greater than 100 µM, greater than 100 µM and 8.7 µM.
The like results for `C#CCCCCn1cnc(N)c2nc(Sc3cc(Cl)cc(Cl)c3)nc1-2` [PDP-112B, 8-((3,5-Dichlorophenyl)thio)-3-(hex-5-yn-1-yl)-3H-purin-6-amine] were, in that order, greater than 100 µM, greater than 100 µM, greater than 100 µM and greater than 10 µM.
With `C#CCCCn1c(Sc2cccc3ccccc23)nc2c(N)ncnc21` [PDP-I-16-N9], the IC50 in experiment [1] was greater than 100 µM; in experiment [2], greater than 100 µM; in experiment [3] it was greater than 100 µM; in experiment [4], 2.16 ± 0.21 µM.
Take `C#CCCCn1c(Sc2cc(Br)cc(Br)c2)nc2c(N)ncnc21` [PDP-I-59-N9]: the IC50 is greater than 100 µM in experiment [1], greater than 100 µM in experiment [2], greater than 100 µM in experiment [3] and 0.26 ± 0.07 µM in experiment [4].
Regarding `C#CCCCn1c(Sc2cc(Cl)cc3c(Cl)ccnc23)nc2c(N)ncnc21` [PDP-I-79-N9], the IC50 in experiment [1] was greater than 100 µM; in experiment [2], greater than 100 µM; in experiment [3], greater than 100 µM; in experiment [4], 2.78 ± 0.21 µM.
Consider `Nc1ncn(Cc2ccccc2)c2nc(Sc3cc(Cl)cc(Cl)c3)nc1-2` [PDP-107B, 3-Benzyl-8-((3,5-dichlorophenyl)thio)-3H-purin-6-amine], for which the IC50 in experiment [1] is greater than 100 µM; in experiment [2] it was greater than 100 µM; in experiment [3], greater than 100 µM; in experiment [4], 11.6 µM.
As for `Nc1ncn(CCC(F)(F)F)c2nc(Sc3cc(Cl)cc(Cl)c3)nc1-2` [PDP-I-13-N3, 8-((3,5-Dichlorophenyl)thio)-3-(3,3,3-trifluoropropyl)-3H-purin-6-amine], the IC50 in experiment [1] is greater than 100 µM; in experiment [2] it was greater than 50 µM; in experiment [3], greater than 100 µM; in experiment [4] it was 12.8 ± 0.86 µM.
As for `C#CCCCn1c(Sc2cccc(Cl)c2Cl)nc2c(N)ncnc21` [PDP-119A], the IC50 in experiment [1] is greater than 100 µM; in experiment [2] it was greater than 100 µM; in experiment [3], greater than 100 µM; in experiment [4], 1.96 µM.
`C#CCCn1c(Sc2cc(Cl)cc(Cl)c2)nc2c(N)ncnc21` [PDP-I-14-N9, 9-(But-3-yn-1-yl)-8-((3,5-dichlorophenyl)thio)-9H-purin-6-amine]: the IC50 in experiment [1] is greater than 100 µM; in experiment [2] it was greater than 100 µM; in experiment [3] it was greater than 100 µM; in experiment [4], 0.27 ± 0.02 µM.
For the compound `Nc1ncnc2c1nc(Sc1cc(Cl)cc(Cl)c1)n2CCCCCC(F)(F)F` [PDP-101B, 8-((3,5-Dichlorophenyl)thio)-9-(6,6,6-trifluorohexyl)-9H-purin-6-amine], the IC50 in experiment [1] is greater than 100 µM; in experiment [2], greater than 100 µM; in experiment [3] it was greater than 100 µM; in experiment [4], 1.65 ± 0.31 µM.
As for `Nc1ncnc2c1nc(Sc1cc(Cl)cc(Cl)c1)n2CCCCC(F)(F)F` [PDP-109A, 8-((3,5-Dichlorophenyl)thio)-9-(5,5,5-trifluoropentyl)-9H-purin-6-amine], the IC50 in experiment [1] is greater than 100 µM; in experiment [2], greater than 100 µM; in experiment [3], greater than 100 µM; in experiment [4] it was 1.11 ± 0.28 µM.
For the compound `C#CCCCn1c(Sc2cc(Br)cc(I)c2)nc2c(N)ncnc21` [PDP-108A], the IC50 was greater than 50 µM in experiment [1], greater than 50 µM in experiment [2], greater than 100 µM in experiment [3] and 0.133 µM in experiment [4].
Take `Nc1ncnc2c1nc(Sc1cc(Cl)cc(Cl)c1)n2CCC(F)(F)F` [PDP-I-13-N9, 8-((3,5-Dichlorophenyl)thio)-9-(3,3,3-trifluoropropyl)-9H-purin-6-amine]: the IC50 is 10.1 ± 1.13 µM in experiment [1], greater than 50 µM in experiment [2], greater than 100 µM in experiment [3] and 0.57 ± 0.08 µM in experiment [4].
`CC#CCn1cnc(N)c2nc(Sc3cc(Cl)cc(Cl)c3)nc1-2` [PDP-102B, 3-(But-2-yn-1-yl)-8-((3,5-dichlorophenyl)thio)-3H-purin-6-amine]: the IC50 was greater than 25 µM in experiment [1], greater than 100 µM in experiment [2], greater than 100 µM in experiment [3] and 10.3 ± 0.82 µM in experiment [4].
Regarding `CC#CCn1c(Sc2cc(Cl)cc(Cl)c2)nc2c(N)ncnc21` [PDP-102A, 9-(But-2-yn-1-yl)-8-((3,5-dichlorophenyl)thio)-9H-purin-6-amine], the IC50 in experiment [1] was greater than 50 µM; in experiment [2], greater than 100 µM; in experiment [3], greater than 100 µM; in experiment [4], greater than 5 µM.
Consider `Nc1ncn(CCCCCC(F)(F)F)c2nc(Sc3cc(Cl)cc(Cl)c3)nc1-2` [PDP-101A, 8-((3,5-Dichlorophenyl)thio)-3-(6,6,6-trifluorohexyl)-3H-purin-6-amine], for which the IC50 in experiment [1], in experiment [2], in experiment [3] and in experiment [4] was greater than 100 µM throughout.
For the compound `C#CCCCn1c(Sc2ccc(Cl)c(Cl)c2)nc2c(N)ncnc21` [PDP-I-25-N9], the IC50 in experiment [1] is 2.35 ± 0.09 µM; in experiment [2], 4.82 ± 1.05 µM; in experiment [3], 10.2 ± 1.62 µM; in experiment [4], 0.42 ± 0.04 µM.
The like results for `C#CCCCn1c(Sc2ccc(Cl)c(Cl)c2Cl)nc2c(N)ncnc21` [PDP-126A] were, in that order, 4.03 ± 0.89 µM, 15.7 ± 0.35 µM, 18.3 ± 1.29 µM and 0.27 ± 0.14 µM.
In the case of `Nc1ncn(CCCCC(F)(F)F)c2nc(Sc3cc(Cl)cc(Cl)c3)nc1-2` [PDP-109B, 8-((3,5-Dichlorophenyl)thio)-3-(5,5,5-trifluoropentyl)-3H-purin-6-amine], the IC50 in experiment [1] was greater than 100 µM; in experiment [2], greater than 100 µM; in experiment [3] it was greater than 100 µM; in experiment [4], greater than 5 µM.
In the case of `C#CCCCCn1c(Sc2cc(Cl)cc(Cl)c2)nc2c(N)ncnc21` [PDP-112A, 8-((3,5-Dichlorophenyl)thio)-9-(hex-5-yn-1-yl)-9H-purin-6-amine], the IC50 is greater than 100 µM in experiment [1], greater than 100 µM in experiment [2], greater than 100 µM in experiment [3] and 0.65 ± 0.05 µM in experiment [4].
As for `C#CCCCn1c(Sc2ccc(Br)cn2)nc2c(N)ncnc21` [PDP-I-60-N9], the IC50 in experiment [1] was found to be 2.18 ± 0.55 µM; in experiment [2] it was 2.18 ± 0.1 µM; in experiment [3], 2.82 µM; in experiment [4], 0.53 ± 0.03 µM.
On the same counts, the results for `C#CCCCn1cnc(N)c2nc(Sc3cc(Br)cc(OC(F)(F)F)c3)nc1-2` [PDP-120B] are greater than 100 µM, greater than 100 µM, greater than 100 µM and greater than 10 µM.
On the same counts, the results for `C#CCCCn1c(Sc2ccc(C(F)(F)F)cc2C(F)(F)F)nc2c(N)ncnc21` [PDP-122] are 7.64 ± 2.15 µM, greater than 100 µM, greater than 100 µM and 0.5 ± 0.39 µM.
`Nc1ncnc2c1nc(Sc1cc(Cl)cc(Cl)c1)n2CCc1ccccc1` [PDP-127, 8-((3,5-Dichlorophenyl)thio)-9-phenethyl-9H-purin-6-amine]: the IC50 is greater than 100 µM in experiment [1], greater than 100 µM in experiment [2], greater than 100 µM in experiment [3] and greater than 2.5 µM in experiment [4].
As to `N#CCCCn1c(Sc2cc(Cl)cc(Cl)c2)nc2c(N)ncnc21` [PDP-93A, 4-(6-Amino-8-((3,5-dichlorophenyl)thio)-9H-purin-9-yl)butanenitrile], the IC50 in experiment [1] was 4.47 ± 0.31 µM; in experiment [2], greater than 50 µM; in experiment [3] it was greater than 100 µM; in experiment [4], 0.45 ± 0.03 µM.
With `CC(Br)CCCn1c(Sc2cc(Cl)cc(Cl)c2)nc2c(N)ncnc21` (stereo not drawn) [PDP-99A, 9-(4-Bromopentyl)-8-((3,5-dichlorophenyl)thio)-9H-purin-6-amine], the IC50 in experiment [1] is greater than 100 µM; in experiment [2] it was greater than 100 µM; in experiment [3] it was greater than 100 µM; in experiment [4] it was 1.52 ± 0.03 µM.
As for `COc1cc(Cc2nc3c(N)ncnc3n2C(C)C)cc(OC)c1OC` [PU-27], the IC50 in experiment [1] is greater than 300 µM; in experiment [2], greater than 500 µM; in experiment [3], greater than 250 µM; in experiment [4] it was 59.3 ± 2.69 µM.
The like results for `C#CCCCn1c(Sc2cc(Br)cc(OC(F)(F)F)c2)nc2c(N)ncnc21` [PDP-120A, 8-((3-Bromo-5-(trifluoromethoxy)phenyl)thio)-9-(pent-4-yn-1-yl)-9H-purin-6-amine] were, in that order, 1.87 µM, greater than 100 µM, greater than 100 µM and 1.21 µM.
